A short description of this assay: In vivo topical activity.

Two molecules from patent publication US4138488A, “Diphenylmethyl picolinic acid derivatives and their use as anti-acne agents” (Schering Corporation, priority 1977, dated 1979) can be followed below.

On to `Oc1c(Cl)cc(Cl)c(Cl)c1Cc1c(O)c(Cl)cc(Cl)c1Cl` [hexachlorophene], for which the “in vivo topical activity” value is given as “neither hexachlorophene nor tetracycline exhibit substantial in vivo topical activity”. As for `CN(C)C1C(=O)C(C(N)=O)=C(O)C2(O)C(=O)C3=C(O)c4c(O)cccc4C(C)(O)C3CC12` (centres unmarked) [tetracycline], the entry is “neither hexachlorophene nor tetracycline exhibit substantial in vivo topical activity”.
